Holding throughout (assay type): in vivo, rhesus macaques
Test [1] has as its system SIVmac239M2. Kind of test: Plasma viral load, four 2-week galunisertib cycles. As for the experimental part: Rhesus macaques (n=8 main study+4 separate non-concomitant study) were infected with 300 TCID50 of the barcoded SIVmac239M2 stock intravenously and ART (Tenofovir [PMPA], Emtricitabine [FTC] and Dolutegravir [DTG]) was initiated on week 6 pi. Galunisertib treatment was initiated on week 35 p.i. Powder (MedChemExpress—MCE, NJ, USA) was dissolved in water and given orally in a treat twice daily at 20 mg/kg. 4 cycles of 2 weeks daily treatment with 2 weeks wash out period were performed. Macaques 08M156 and A6X003 were given the rhesus recombinant antibody (rhesus/human chimeric) anti-PD1 antibody [NIVOR4LALA; comprising silenced rhesus IgG4k […] constant regions and variable regions from anti-human PD-1, nivolumab; non-human primates reagents resource, NHPRR. Blood viral load was monitored biweekly before and during ART and every 3-4 days during Galunisertib treatment. Colorectal biopsies and LN FNA were collected before and after galunisertib treatment. ART was terminated 3 weeks after the last galunisertib dose and euthanasia and necropsy to harvest tissues were performed at week 58 post infection, tissues samples were flash frozen, fixed in OCT or Z-fix.
(§1) Blood was collected in EDTA tubes and plasma was separated by density gradient centrifugation and used for the determination of plasma VL by SIVgag qRT-PCR at NIRC or at Leidos (Quantitative Molecular Diagnostics Core, AIDS and Cancer Virus Program Frederick National Laboratory). Tissue VL from snap frozen PBMC pellets, colorectal biopsies and LN FNA were performed as described in (77). SIV-TILDA was performed on freshly stored PBMC before cycle 1 and at the end of cycle 4 of galunisertib by Accelevir, Baltimore, MD.

Test [2] has as its system SIVmac239M2. Kind of test: SIV-IPDA intact and total provirus in PBMC. As to the method: To determine the impact of galunsiertib on SIV reservoir, CA-vDNA was measured in PBMC, colorectal biopsies and lymph nodes (LN). […] In the gut and LN (right axillary), decreases range from a Log to ⅓ of a Log (gut: median 0.77; range:0.33-0.94 folds LN: median: 0.93; range:0.33-0.98 folds decrease). In the PBMC the decrease was slightly less pronounced with a median half Log decrease ([…] median: 0.58; range 0.28-0.88 folds decrease). However, the comparison for the PBMCs was between week ˜35 and week ˜45 (end of cycle 3, AC3) instead of the end of all 4 cycles, because a snap frozen pellet was not available at the end of cycle 4 for PBMCs. The SIV reservoir in PBMCs was also monitored by SIV-IPDA comparing before cycle 1 (BC1) to the end of cycle 4 (AC4). […] Intact provirus declined similarly to the CA-vDNA with a median of half Log (median: 0.53; range:0-0.71 folds decrease).
as §1

Another test relates to Tregs and Tfh cells. Kind of test: Circulating Treg and Tfh frequencies by flow cytometry. As for the experimental part: Peripheral blood mononuclear cells (PBMCs) collected from 8 macaques at 7 time points spanning Cycle 1 to Cycle 4 (refer to Table 5) were employed for high-parameter flow cytometry staining. Cells from before and after cycle 1 and at the end of cycle 3 were used for Tfh/Treg assay. In both cases, cell fixation and permeabilization for intracellular staining were carried out using the FoxP3 Staining Buffer set (Thermo Fisher Scientific, Carlsbad, CA). The high-dimensional panel consisted of antibodies outlined in Table 4, catering to requirements for surface and intracellular staining, as well as viability assessment. Each antibody was individually titrated to ensure optimal staining conditions. Data acquisition was performed using the FACSymphony A5.2 Spectral Analyzer. Following data collection, spectral compensation was implemented utilizing FlowJo™ v10.8 Software (BD Life Sciences). 60,000 live singlet lymphocytes from each of samples was downsampled to prevent disproportionate representation by samples with higher cell counts, ensuring balanced subsequent analysis. To mitigate batch effects, we utilized the swiftReg Neighbor-Dependent Cluster Registration (NDCR) method available within the SWIFT package(112). This method effectively addresses batch variations while preserving the inherent biological diversity. […] Furthermore, we implemented the Peak Extraction and Cleaning Oriented Quality Control (PeacoQC) procedure (138) in FlowJo™ v10.8 to eliminate low-quality events arising from potential issues like clogs, speed fluctuations, and slow sample uptake. FlowSOM FlowJo plugin was employed for automated cell population identification, preceded by the utilization of Phenograph to obtain optimal cluster numbers for dimensional reduction, for the merged data of All Time points and BC1 vs AC4 merged data respectively. The Supplementary FIG. 29A heatmap illustrates the median fluorescence intensity (MFI) values for all markers across all clusters. […]

Consider `Cc1cccc(-c2nn3c(c2-c2ccnc4ccc(C(N)=O)cc24)CCC3)n1` [galunisertib, Galunisertib], for which the “macaques with increased pVL after start of treatment” value in the test on SIVmac239M2 [1] (20 mg/Kg twice daily orally, 4 cycles) is listed as 7 out of 8. Further, the “increases in pVL in fully suppressed macaques” value in the test on SIVmac239M2 [1] (08M171, A8R095 and A8L057) is on record as over 102 copies/ml. Besides, the “viral rebound after ART interruption” value in the test on SIVmac239M2 [1] (ART discontinued 3 weeks after last dose, 6 weeks follow-up) was “One macaque did not rebound”. Besides, the “macaques with viral blips above 100 copies/ml in blood” value in the test with SIVmac239M2 [1] (Example 5, 7 macaques, 20 mg/kg twice per day, four 2-weeks cycles) is reported as 5 out of the 7. Also, in the test with SIVmac239M2 [1] (macaques with several peaks), the “pVL peaks during treatment” value is listed as “up to 103 copies/ml”. Moreover, in the test with SIVmac239M2 [1] (undetectable for over 5 weeks before), the “pVL blips in A8T010 and A8R095 after treatment initiation” value is “up to 102 copies/ml”. For the same molecule, in the test with SIVmac239M2 [2] (BC1 (week 35 pi) to AC4 (week 49 pi), median), the “decrease of intact pro-virus in PBMC” value was found to be 3 fold. For the same molecule, in the test on SIVmac239M2 [2] (PBMC, BC1 vs AC4), the “intact provirus decline by SIV-IPDA, median” value was 0.53 folds; the “intact provirus decline by SIV-IPDA, range” value is listed as 0-0.71 folds; the “total and intact provirus by SIV-IPDA” value was “significant decreases”. For the same molecule, the “circulating Tfh (CXCR5+PD1+) within total and central memory CD4+ T cells” value with Tregs and Tfh cells (end of treatment) is given as “lower”. Besides, in the test with Tregs and Tfh cells (remained higher until end of 3rd cycle), the “frequency of CD4+ Tregs (CD25high FoxP3+) and CD8+ Tregs” value is “increased after the first cycle”. In addition, the “expression of CD39 on total and central memory CD4+ T cells” value with Tregs and Tfh cells (rhesus monkey, in vivo) is reported as “lower”.
